In one data set the test system is Neutrophil. Description: Induction of apoptosis in mouse neutrophils assessed as late apoptotic cells at 20 uM incubated for 16 hrs by Annexin V-FITC/PI staining based flow cytometry analysis (reference value: 24.4%). The class given is toxicity, cell-based.
Data set [1] addresses Signal transducer and activator of transcription 3 (Mus musculus) (UniProt P42227). Description: Inhibition of biotinylated ACT001 probe binding to STAT3 in mouse bone marrow neutrophils at 100 uM by pulldown based Western blot analysis. It is filed as cell-based. The settings on record: Neutrophil.
Data set [2] is described as follows: Subacute toxicity in C57BL/6 mouse assessed as effect on creatinine level in serum at 100 mg/kg, po administered daily for 14 days and measured every day. The class given is organism-based. The settings on record: in vivo, 336 h, time 14 day.
Data set [3] can be described thus: AUC (0 to t) in male Sprague-Dawley rat at 10 mg/kg, po by LC-MS/MS analysis. The class given is ADME, organism-based. The settings on record: in vivo.
Data set [4] is described as follows: Acute toxicity in C57BL/6 mouse assessed as change in lung weight at 500 mg/kg, po administered as single dose and measured after 14 days. The settings on record: in vivo, 336 h, time 14 day. It is filed as organism-based.
Data set [5] in a line: Subacute toxicity in C57BL/6 mouse assessed as change in liver weight at 100 mg/kg, po administered daily for 14 days. It is filed as organism-based. The settings on record: in vivo, 336 h, time 14 day.
For the next data set, the system named is Candida albicans. Description: Induction of neutrophil-mediated antifungal immunity against Candida albicans SC5314 infected in mouse assessed as reduction in PD-L1 positive Ly6G positive neutrophils in bone marrow at 50 to 100 mg/kg, po administered once a day for 3 days by flow cytometry analysis. The class given is functional, organism-based. The settings on record: dose 50-100 mg/kg, time 3.0 day.

The nature of data set [6]: Acute toxicity in C57BL/6 mouse assessed as change in heart weight at 500 mg/kg, po administered as single dose and measured after 14 days. The settings on record: in vivo, 336 h, time 14 day. The class given is organism-based.
Data set [7] can be described thus: Potency index, ratio of test compound IC50 to ACT001 IC50 for cytotoxicity against mouse neutrophils assessed as reduction in cell viability incubated for 16 hrs by flow cytometry analysis. It is filed as toxicity, cell-based, Neutrophil. The settings on record: read-out: Ratio IC50.
A short description of data set [8]: Acute toxicity in C57BL/6 mouse assessed as histopathological changes in heart at 500 mg/kg, po administered as single dose and measured after 14 days. The class given is organism-based. The following applies: in vivo, 336 h, time 14 day.

Calls of active or inactive are those of the source. No cut-off for these calls is given here.

Sequence of Signal transducer and activator of transcription 3 (Mus musculus) (P42227 whole entry): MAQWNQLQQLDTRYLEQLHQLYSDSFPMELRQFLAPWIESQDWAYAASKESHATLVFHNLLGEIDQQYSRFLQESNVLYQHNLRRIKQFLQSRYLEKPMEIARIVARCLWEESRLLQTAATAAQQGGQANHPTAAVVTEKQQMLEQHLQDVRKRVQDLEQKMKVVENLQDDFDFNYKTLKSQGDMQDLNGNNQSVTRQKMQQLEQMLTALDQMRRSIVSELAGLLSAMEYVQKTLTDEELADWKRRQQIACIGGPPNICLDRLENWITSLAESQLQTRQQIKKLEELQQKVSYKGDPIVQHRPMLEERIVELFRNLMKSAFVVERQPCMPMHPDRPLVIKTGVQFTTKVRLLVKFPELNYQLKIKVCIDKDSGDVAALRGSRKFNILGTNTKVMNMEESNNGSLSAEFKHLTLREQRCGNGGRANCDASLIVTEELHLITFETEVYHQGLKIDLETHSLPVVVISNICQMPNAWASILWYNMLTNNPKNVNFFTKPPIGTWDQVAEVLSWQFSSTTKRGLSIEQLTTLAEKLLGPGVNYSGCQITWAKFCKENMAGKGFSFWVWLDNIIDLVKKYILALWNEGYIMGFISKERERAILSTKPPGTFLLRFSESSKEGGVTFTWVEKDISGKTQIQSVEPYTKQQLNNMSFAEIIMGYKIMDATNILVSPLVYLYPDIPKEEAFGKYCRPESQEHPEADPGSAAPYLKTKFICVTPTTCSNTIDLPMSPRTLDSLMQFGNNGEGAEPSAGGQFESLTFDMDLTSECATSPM

As for `C[C@@]1(O)CC[C@]23O[C@@]2(C)CC[C@@H]2[C@H](OC(=O)[C@H]2CS(=O)(=O)c2c(Cl)cccc2Cl)[C@@H]13`, the Activity is given as 27% in the data set with Neutrophil; “Non-Toxic” in data set [2]; “Non-Toxic” in data set [4]; “Non-Toxic” in data set [5]; “Non-Toxic” in data set [6]; “Non-Toxic” in data set [8]. The inhibition entry in [1] is “Active”. This compound also showed an AUC(0-t) in data set [3] of 167 ng·h/mL. The outcome in the data set with Candida albicans was Active. Besides, the selectivity ratio at 16 h in [7] was 10.9.

(Values after ChEMBL document CHEMBL5543121, “Drug Repurposing of ACT001 to Discover Novel Promising Sulfide Prodrugs with Improved Safety and Potent Activity for Neutrophil-Mediated Antifungal Immunotherapy” (J Med Chem, 2024).)
